For 16 compounds, IC50 results are on record in patent publication US8513276B2, “Imidazo[1,2-a]pyridine compounds for use in treating cancer” (Astex Therapeutics Limited, priority 2006, dated 2013).

Structures can show the parent of a compound that is named as a salt. Where two headings read alike, the source gives them in different places.

One assay deals with T1, FGFR3 (Homo sapiens, UniProt P22607).
T1 construct: Enzymes (from Upstate) were prepared at 2× final concentration in 1× kinase assay buffer; purchased Upstate
The assay is described as follows: FGFR3 in vitro kinase inhibitory activity assay (TRF). Format: biochemical. On the procedure: Enzymes (from Upstate) were prepared at 2× final concentration in 1× kinase assay buffer (as described below). Enzymes were then incubated with test compounds, biotinylated Flt3 substrate (biotin—DNEYFYV) (Cell Signalling Technology Inc.) and ATP. The reaction was allowed to proceed for 3 hours (FGFR3) or 2.5 hrs (PDGFR-beta) at room temperature on a plate shaker at 900 rpm before being stopped with 20 μl of 35 mM EDTA, pH 8 (FGFR3) or 55 mM EDTA, pH 8 (PDGFR-beta). Twenty μl of 5× detection mix (50 mM HEPES pH 7.5, 0.1% BSA, 2 nM Eu-anti-pY (PY20) (PerkinElmer) 15 nM SA-XL665 (Cisbio) for FGFR3 and 50 mM HEPES, pH 7.5, 0.5 M KF, 0.1% BSA, 11.34 nM Eu-anti-pY (PT66) (PerkinEimer), 94 nM SA-XL665 (Cisbio) for PDGFR-beta) was then added to each well and the plate sealed and incubated at room temperature for one hour on a plate shaker at 900 rpm. The plate was then read on a Packard Fusion plate reader in TRF mode.
Kinase Assay buffers were:
A: 50 mM HEPES pH 7.5, 6 mM MnCl2, 1 mM DTT, 0.1% TritonX-100

In another assay the test system is LP-1 cell line. The assay is described as follows: Cell-based pERK ELISA in LP-1 multiple myeloma cells. The settings on record: Homo sapiens. On the procedure:
LP-1 or JIM-1 multiple myeloma cells were seeded in 96 well plates at 1×10^6 cells/ml in 200 μl per well in serum free media. HUVEC cells were seeded at 2.5×10^5 cells/ml and allowed to recover for 24 h prior to transfer to serum free media. Cells were incubated for 16 h at 37° C. prior to the addition of a test compound for 30 minutes. Test compounds were administered at a 0.1% final DMSO concentration. Following this 30 minute incubation a FGF-1/Heparin (FGF-1 at 100 ng/ml final and Heparin at 100 ug/ml) mixture or VEGF^165 ([…]) was added to each of the wells for a further 5 minutes. The media was removed and 50 ul ERK ELISA lysis buffer (R and D Systems DuoSet ELISA for pERK and Total ERK #DYC-1940E, DYC-1018E) added. ELISA plates and standards were prepared according to the standard DuoSet protocols and the relative amounts of pERK to total ERK in each sample calculated according to the standard curve.
In particular, compounds of the invention were tested against the LP-1 cell line (DSMZ no.: ACC 41) derived from human multiple myeloma.
(In general: An ELISA detects its analyte on a solid surface through an enzyme-linked reagent.)

Where [1] appears, read: given as a bound, read-out: IC50 in the FGFR3 assay.
[2] abbreviates: in vitro kinase assay, 8 μM ATP, read-out: FGFR3 IC50.
Where [3] appears, read: LP-1 cell line, given as a bound, read-out: IC50 in LP-1 pERK ELISA.
Setting [4] is: LP-1 cells, FGF-1/heparin stimulation, pERK relative to total ERK, read-out: LP-1 pERK ELISA.

T1 sequence (P22607 23-806): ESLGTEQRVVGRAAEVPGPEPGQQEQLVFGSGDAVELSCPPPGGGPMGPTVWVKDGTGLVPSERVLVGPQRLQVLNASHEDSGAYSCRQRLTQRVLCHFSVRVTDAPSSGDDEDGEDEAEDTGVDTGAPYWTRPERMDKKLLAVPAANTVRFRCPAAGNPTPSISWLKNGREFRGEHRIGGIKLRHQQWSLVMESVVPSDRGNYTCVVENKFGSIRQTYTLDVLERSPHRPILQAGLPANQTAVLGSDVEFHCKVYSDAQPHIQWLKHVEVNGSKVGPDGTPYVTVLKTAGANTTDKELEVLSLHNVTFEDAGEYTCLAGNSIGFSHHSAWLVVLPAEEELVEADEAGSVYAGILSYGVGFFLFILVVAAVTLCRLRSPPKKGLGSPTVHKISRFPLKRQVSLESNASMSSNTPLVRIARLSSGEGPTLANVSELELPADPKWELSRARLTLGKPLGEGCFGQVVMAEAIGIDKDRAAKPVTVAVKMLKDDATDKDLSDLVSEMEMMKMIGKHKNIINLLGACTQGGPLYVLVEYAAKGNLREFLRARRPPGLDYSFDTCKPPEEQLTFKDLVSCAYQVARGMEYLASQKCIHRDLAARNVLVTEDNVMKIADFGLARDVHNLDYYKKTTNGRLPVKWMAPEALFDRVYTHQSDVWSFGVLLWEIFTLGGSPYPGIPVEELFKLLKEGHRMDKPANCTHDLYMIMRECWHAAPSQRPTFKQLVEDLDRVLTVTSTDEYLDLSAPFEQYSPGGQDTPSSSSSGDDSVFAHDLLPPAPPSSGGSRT

Consider `Fc1ccc(-c2cnc3c(-c4cccc(Nc5nncs5)c4)cnn3c2)cc1` [Example 10, {3-[6-(4-Fluoro-phenyl)-pyrazolo[1,5-a]pyrimidin-3-yl]-phenyl}-[1,3,4]thiadiazol-2-yl-amine], for which the IC50 was under 1000 nM at FGFR3 (setting [1]), 4.82 nM on FGFR3 (setting [2]), under 1000 nM with LP-1 cell line (setting [3]) and 39 nM with LP-1 cell line (setting [4]).

As to `Cn1cc(-c2ccn3c(-c4cccc(Nc5nncs5)c4)cnc3c2)cn1` [Example 14, {3-[7-(1-Methyl-1H-pyrazol-4-yl)-imidazo[1,2-a]pyridin-3-yl]-phenyl}-[1,3,4]thiadiazol-2-yl-amine], the IC50 at FGFR3 (setting [1]) is under 1000 nM; at FGFR3 (setting [2]), 16 nM; in the assay on LP-1 cell line (setting [3]), under 1000 nM; with LP-1 cell line (setting [4]), 8.5 nM.

With `Fc1ccc(-c2cnc3c(-c4cncc(Nc5nncs5)c4)cnn3c2)cc1` [Example 25, {5-[6-(4-Fluoro-phenyl)-pyrazolo[1,5-a]pyrimidin-3-yl]-pyridin-3-yl}-[1,3,4]thiadiazol-2-yl-amine], the IC50 at FGFR3 (setting [1]) and with LP-1 cell line (setting [3]) was under 1000 nM throughout.

`O=C1CN(Cc2cccc(-c3ccn4c(-c5cccc(Nc6nncs6)c5)cnc4c3)c2)CCN1` [Example 28, 4-(3-{3-[3-([1,3,4]Thiadiazol-2-ylamino)-phenyl]-imidazo[1,2-a]pyridin-7-yl}-benzyl)-piperazin-2-one Formate]: the IC50 at FGFR3 (setting [1]) and with LP-1 cell line (setting [3]) was under 1000 nM throughout.

For the compound `CNC(=O)Cc1cccc(-c2ccn3c(-c4cccc(Nc5nncs5)c4)cnc3c2)c1` [Example 26, N-Methyl-2-(3-{3-[3-([1,3,4]thiadiazol-2-ylamino)-phenyl]-imidazo[1,2-a]pyridin-7-yl}-phenyl)-acetamide Hydrochloride], the IC50 on FGFR3 (setting [1]) and with LP-1 cell line (setting [3]) was under 1000 nM in each case.

Consider `c1cc(Nc2nncs2)cc(-c2cnn3cc(-c4ccncc4)cnc23)c1` [Example 17, [3-(6-Pyridin-4-yl-pyrazolo[1,5-a]pyrimidin-3-yl)-phenyl]-[1,3,4]thiadiazol-2-yl-amine], for which the IC50 at FGFR3 (setting [1]) and in the assay with LP-1 cell line (setting [3]) was under 1000 nM each time.

As to `Nc1ccc(-c2cnc3c(-c4cccc(Nc5nncs5)c4)cnn3c2)cn1` [Example 11, 5-{3-[3-([1,3,4]Thiadiazol-2-ylamino)-phenyl]-pyrazolo[1,5-a]pyrimidin-6-yl}-pyridin-2-ylamine hydrochloride salt], the IC50 on FGFR3 (setting [1]) was under 1000 nM; at FGFR3 (setting [2]), 6.03 nM; in the assay with LP-1 cell line (setting [3]), under 1000 nM; in the assay on LP-1 cell line (setting [4]) it was 40 nM.

For `Cn1cc(-c2cnc3c(-c4cccc(Nc5nncs5)c4)cnn3c2)cn1` [Example 16, {3-[6-(1-Methyl-1H-pyrazol-4-yl)-pyrazolo[1,5-a]pyrimidin-3-yl]-phenyl}-[1,3,4]thiadiazol-2-yl-amine], the IC50 on FGFR3 (setting [1]) and in the assay on LP-1 cell line (setting [3]) was under 1000 nM each time.

For the compound `CN1CCN(Cc2ccc(-c3ccn4c(-c5cccc(Nc6cnn[nH]6)c5)cnc4c3)cc2)CC1` [Example 4, (3-{7-[4-(4-Methyl-piperazin-1-ylmethyl)-phenyl]-imidazo[1,2-a]pyridin-3-yl}-phenyl)-(3H-[1,2,3]triazol-4-yl)-amine formate salt], the IC50 on FGFR3 (setting [1]) and with LP-1 cell line (setting [3]) was under 1000 nM in each case.

Consider `c1cc(CN2CCOCC2)cc(-c2ccn3c(-c4cccc(Nc5nncs5)c4)cnc3c2)c1` [Example 2], for which the IC50 on FGFR3 (setting [1]) and in the assay on LP-1 cell line (setting [3]) was under 1000 nM in each case.

On to `Cc1nnc(Nc2cccc(-c3cnc4cc(-c5cccc(CN6CCOCC6)c5)ccn34)c2)s1` [Example 3], for which the IC50 at FGFR3 (setting [1]) and in the assay with LP-1 cell line (setting [3]) was under 1000 nM in each case.

Consider `Clc1ccn2c(-c3cccc(Nc4nncs4)c3)cnc2c1` [the starting material of Procedure A4c, [3-(7-Chloro-imidazo[1,2-a]pyridin-3-yl)-phenyl]-[1,3,4]thiadiazol-2-yl-amine], for which the IC50 on FGFR3 (setting [1]) and with LP-1 cell line (setting [3]) was under 1000 nM throughout.

For the compound `Fc1ccc(-c2ccc3c(-c4cccc(Nc5nncs5)c4)cnn3c2)cc1` [Example 12, {3-[6-(4-Fluoro-phenyl)-pyrazolo[1,5-a]pyridin-3-yl]-phenyl}-[1,3,4]thiadiazol-2-yl-amine], the IC50 at FGFR3 (setting [1]) and with LP-1 cell line (setting [3]) was under 1000 nM throughout.

Regarding `O=C(O)Cc1cccc(-c2ccn3c(-c4cccc(NCc5ccccc5)c4)cnc3c2)c1` [Example 13, {3-[3-(3-Benzylamino-phenyl)-imidazo[1,2-a]pyridin-7-yl]-phenyl}-acetic acid], the IC50 on FGFR3 (setting [1]) and with LP-1 cell line (setting [3]) was under 1000 nM in each case.

Turning to `c1cc(Nc2nncs2)cc(-c2cnn3cc(-c4cnccn4)cnc23)c1` [Example 18, [3-(6-Pyrazin-2-yl-pyrazolo[1,5-a]pyrimidin-3-yl)-phenyl]-[1,3,4]thiadiazol-2-yl-amine], the IC50 on FGFR3 (setting [1]) and in the assay with LP-1 cell line (setting [3]) was under 1000 nM throughout.

`CNC(=O)c1cccc(-c2ccn3c(-c4cccc(Nc5nncs5)c4)cnc3c2)c1` [Example 30, N-Methyl-3-{3-[3-([1,3,4]thiadiazol-2-ylamino)-phenyl]-imidazo[1,2-a]pyridin-7-yl}-benzamide Hydrochloride]: the IC50 on FGFR3 (setting [1]) and in the assay on LP-1 cell line (setting [3]) was under 1000 nM throughout.
